For data set [1], the system named is Human immunodeficiency virus 1. Kind of data set: Antiviral activity against HIV-1 assessed as inhibition of viral growth. It counts as functional, organism-based.
Data set [2] in a line: Solubility of the compound at pH 5.4. The conditions noted are these: buffer. It counts as physicochemical.
Data set [3] in a line: Basic dissociation constant, pKa of the compound.
A short description of data set [4]: Aqueous solubility of the compound. Type of data set: physicochemical.
Data set [5] concerns Human immunodeficiency virus 1. Description: Antiviral activity against HIV-1 SF-2 T-tropic (X4) infected in human MT2 cells assessed as inhibition of viral growth by ELISA. It counts as functional, organism-based. As to conditions: Human immunodeficiency virus 1, SF-2 T-tropic (X4). For orientation: An ELISA detects its analyte on a solid surface through an enzyme-linked reagent.

The test system of data set [6] is Human immunodeficiency virus 1. Description: Antiviral activity against HIV-1 NL4-3 T-tropic (X4) infected in human MT2 cells assessed as inhibition of viral growth by ELISA. Type of data set: functional, organism-based. The conditions noted are these: Human immunodeficiency virus 1, NL4-3 T-tropic (X4).
Data set [7] deals with Human immunodeficiency virus 1. Description: Antiviral activity against HIV-1 Bal macrophage-tropic (R5) infected in human PM1 cells assessed as inhibition of viral growth by ELISA. Type of data set: functional, organism-based. The conditions noted are these: Human immunodeficiency virus 1, Bal macrophage-tropic (R5).
The subject of data set [8] is Human immunodeficiency virus 1. Description: Antiviral activity against HIV-1 TLAV T-tropic (X4)/macrophage-tropic (R5) infected in human MT2 cells assessed as inhibition of viral growth by ELISA. Type of data set: functional, organism-based. The conditions noted are these: Human immunodeficiency virus 1, TLAV T-tropic (X4)/macrophage-tropic (R5).
Data set [9] has as its system Human immunodeficiency virus 1. Kind of data set: Antiviral activity against HIV-1 LAI T-tropic (X4) infected in human MT2 cells assessed as inhibition of viral growth by ELISA. It counts as functional, organism-based. As to conditions: Human immunodeficiency virus 1, LAI T-tropic (X4).
Data set [10] deals with Human immunodeficiency virus 1. Description: Antiviral activity against HIV-1 JRFL macrophage-tropic (R5) infected in human PM1 cells assessed as inhibition of viral growth by ELISA. It counts as functional, organism-based. As to conditions: Human immunodeficiency virus 1, JRFL macrophage-tropic (R5).
The nature of data set [11]: Oral bioavailability in dog. Type of data set: ADME, organism-based, Canis lupus familiaris. The conditions noted are these: in vivo.
The subject of data set [12] is Human immunodeficiency virus 1. Description: Antiviral activity against HIV-1 SF-162 macrophage-tropic (R5) infected in human PM1 cells assessed as inhibition of viral growth by ELISA. It counts as functional, organism-based. As to conditions: Human immunodeficiency virus 1, SF-162 macrophage-tropic (R5).
Data set [13] in a line: Oral bioavailability in monkey. The conditions noted are these: rhesus monkey, in vivo. It counts as ADME, organism-based, Macaca mulatta.
Data set [14] is described as follows: Oral bioavailability in rat. It counts as ADME, organism-based. As to conditions: in vivo.
In data set [15] the test system is Human immunodeficiency virus 1. Kind of data set: Antiviral activity against HIV-1 JR-CSF assessed as inhibition of viral growth. It counts as functional, organism-based. As to conditions: Human immunodeficiency virus 1, JR-CSF.

≈ marks a conversion by molar mass, not a printed value.

For `Cc1csc(-c2ccc(F)c3c(C(=O)C(=O)N4CCN(C(=O)c5ccccc5)CC4)c[nH]c23)n1`, the EC50 in [1] was 0.0058 nM.
`COc1cnc(OC)c2c1c(C(=O)C(=O)N1CCN(C(=O)c3ccccc3)CC1)cn2COP(=O)(O)O.NCCCC[C@H](N)C(=O)O` gave a solubility in data set [2] greater than 12000 µg/mL.
In turn, `c1cc2cc[nH]c2cn1` registered a pKa in data set [3] of 7.93.
Compound `COc1ccnc2[nH]cc(C(=O)C(=O)N3CCN(C(=O)c4ccccc4)C[C@@H]3C)c12` had a solubility in data set [4] of 170 µg/mL (≈ 418 µM). Also, the EC50 in data set [5] was found to be 26.5 nM; in data set [6], 2.94 nM; in [7], 15.5 nM; in data set [8], 0.85 nM; in data set [9], 2.68 nM; in data set [10] it was 1.47 nM. Also, the EC50 in [12] amounted to 3.46 nM. Further, the results for the bioavailability in data set [11], in data set [13] and in data set [14] were 77%, 24% and 19%, respectively.
As to `Cc1ncn(-c2ncc(F)c3c(C(=O)C(=O)N4CC5CN(C(=O)c6ccccc6)CC5C4)c[nH]c23)n1` (stereo not given), the half-maximal inhibitory concentration (IC50) in [15] was found to be 0.8 nM.
In turn, `c1cnc2cc[nH]c2c1` came in with a pKa in data set [3] of 6.94.
Consider `COc1ncc(OC)c2c(C(=O)C(=O)N3CCN(C(=O)c4ccccc4)CC3)c[nH]c12`, for which the values for the bioavailability in [13] and in data set [14] were 60% and 90%, respectively.
For the compound `O=C(C(=O)N1CCN(C(=O)c2ccccc2)CC1)c1c[nH]c2c(-c3nccs3)ccc(F)c12`, in data set [1], the EC50 is 0.057 nM.
`c1cc2[nH]ccc2cn1` showed a pKa in data set [3] of 8.26.

By EC50 is commonly meant the concentration giving half of the maximal effect. In general, solubility refers to the concentration that dissolves in the medium under given conditions. In general, pKa refers to the pH at which an ionisable group is half protonated. For orientation: bioavailability means dose-corrected exposure relative to a reference, in per cent. As a reminder, the IC50 is the concentration that inhibits the measured activity by half.

The values are drawn from ChEMBL document CHEMBL5143686, “Development of Azaindole-Based Frameworks as Potential Antiviral Agents and Their Future Perspectives” (J Med Chem, 2022).
